Experimental data published in patent US20090018134A1, “Compounds - 945” (AstraZeneca AB, priority 2007, published 2009).

Target: T1, mTOR (Homo sapiens, UniProt P42345)
T1 construct: FLAG; made in house
Assay: In Vitro mTOR Kinase Assay (Echo), Test (a)(ii)
Assay type: biochemical
Conditions: read-out: mTOR Kinase Assay (Echo)
Outline: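 Inhibition of truncated mTOR (1362-2549, FLAG-tagged, purified from stably transfected HEK293 cells) is measured as reduced AlphaScreen signal from a phospho-T389-recognising antibody bound to the biotinylated peptide product. Kinase incubation lasts 2 hours at room temperature. Potency is given as IC50.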

T1 sequence (P42345 1362-2549): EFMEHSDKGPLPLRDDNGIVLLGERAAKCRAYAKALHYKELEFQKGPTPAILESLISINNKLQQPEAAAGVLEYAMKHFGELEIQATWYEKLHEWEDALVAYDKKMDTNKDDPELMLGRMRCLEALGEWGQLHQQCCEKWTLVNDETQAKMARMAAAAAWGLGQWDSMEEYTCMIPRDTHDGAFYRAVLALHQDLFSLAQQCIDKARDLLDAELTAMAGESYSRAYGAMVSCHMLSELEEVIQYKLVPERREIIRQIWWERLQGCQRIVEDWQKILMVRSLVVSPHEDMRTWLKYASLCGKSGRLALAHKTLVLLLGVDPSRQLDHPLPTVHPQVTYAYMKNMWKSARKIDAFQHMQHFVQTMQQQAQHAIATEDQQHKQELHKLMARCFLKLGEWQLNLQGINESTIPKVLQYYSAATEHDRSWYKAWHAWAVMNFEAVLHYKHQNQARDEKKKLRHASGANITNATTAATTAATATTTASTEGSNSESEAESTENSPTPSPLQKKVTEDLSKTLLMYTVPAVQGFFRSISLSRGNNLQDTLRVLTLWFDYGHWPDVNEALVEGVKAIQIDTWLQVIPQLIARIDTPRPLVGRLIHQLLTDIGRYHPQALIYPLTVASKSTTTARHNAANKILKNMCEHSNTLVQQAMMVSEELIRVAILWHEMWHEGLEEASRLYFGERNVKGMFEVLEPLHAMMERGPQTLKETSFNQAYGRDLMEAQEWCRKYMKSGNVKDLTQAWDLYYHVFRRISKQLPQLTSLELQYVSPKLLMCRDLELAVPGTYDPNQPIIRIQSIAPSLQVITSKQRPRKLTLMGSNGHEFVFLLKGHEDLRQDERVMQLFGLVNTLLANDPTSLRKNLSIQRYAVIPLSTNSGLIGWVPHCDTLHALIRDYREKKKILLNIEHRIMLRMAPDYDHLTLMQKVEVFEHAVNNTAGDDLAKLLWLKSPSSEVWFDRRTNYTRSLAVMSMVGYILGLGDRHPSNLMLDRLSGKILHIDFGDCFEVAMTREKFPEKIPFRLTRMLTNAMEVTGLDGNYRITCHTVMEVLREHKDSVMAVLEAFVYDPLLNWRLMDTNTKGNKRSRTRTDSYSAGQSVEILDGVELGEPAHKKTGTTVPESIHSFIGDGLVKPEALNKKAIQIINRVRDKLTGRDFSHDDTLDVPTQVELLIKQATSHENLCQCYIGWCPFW

Row | IC50 [nM] | SMILES
1 | 10 | C[C@H]1COCCN1c1cc(C2(S(C)(=O)=O)CCCC2)nc(-c2ccc(NC(=O)NC3CCC3)cc2)n1 [Example 4d, 3-cyclobutyl-1-[4-[4-[(3S)-3-methylmorpholin-4-yl]-6-(1-methylsulfonylcyclopentyl)pyrimidin-2-yl]phenyl]urea]
2 | 18.1 | C[C@H]1COCCN1c1cc(C2(S(C)(=O)=O)CC2)nc(-c2ccc(NC(=O)NCC(O)C(F)(F)F)cc2)n1 (stereo partly drawn) [Example 2z, 1-[4-[4-[(3S)-3-methylmorpholin-4-yl]-6-(1-methylsulfonylcyclopropyl)pyrimidin-2-yl]phenyl]-3-(3,3,3-trifluoro-2-hydroxypropyl)urea]
3 | 3.37 | CCS(=O)(=O)C1(c2cc(N3CCOC[C@@H]3C)nc(-c3ccc(NC(=O)NC(C)(C)CO)cc3)n2)CC1 [Example 11f, 1-[4-[4-(1-ethylsulfonylcyclopropyl)-6-[(3S)-3-methylmorpholin-4-yl]pyrimidin-2-yl]phenyl]-3-(1-hydroxy-2-methyl-propan-2-yl)urea]
4 | 4.33 | C[C@H]1COCCN1c1cc(C2(S(C)(=O)=O)CC2)nc(-c2ccc(NC(=O)NC(C)(C)CO)cc2)n1 [Example 2f, 3-(1-hydroxy-2-methyl-propan-2-yl)-1-[4-[4-[(3S)-3-methylmorpholin-4-yl]-6-(1-methylsulfonylcyclopropyl)pyrimidin-2-yl]phenyl]urea]

Same assay, conditions: table of enzyme assay Test (a)(ii); read-out: Test (a)(ii) IC50

Row | IC50 [nM] | SMILES
5 | 5.31 | C[C@H]1COCCN1c1cc(C2(S(=O)(=O)CCCO)CCC2)nc(-c2ccc(NC(=O)Nc3ccon3)cc2)n1 [Example 43m, 1-[4-[4-[1-(3-hydroxypropylsulfonyl)cyclobu-tyl]-6-[(3S)-3-methylmorpholin-4-yl]pyrimidin-2-yl]phenyl]-3-(1,2-oxazol-3-yl)urea]
6 | 2.75 | C[C@H]1COCCN1c1cc(C2(S(=O)(=O)c3ccccn3)CCC2)nc(-c2ccc(NC(=O)NC3CC3)cc2)n1 [Example 36af, 3-cyclopropyl-1-[4-[4-[(3S)-3-methylmorpholin-4-yl]-6-(1-pyridin-2-ylsulfonylcyclobutyl)pyrimidin-2-yl]phenyl]urea]
7 | 188 | C[C@H]1COCCN1c1cc(C2(S(=O)(=O)CCCO)CCC2)nc(-c2ccc(NC(=O)NCc3ncc[nH]3)cc2)n1 [Example 43e, 1-[4-[4-[1-(3-hydroxypropylsulfonyl)cyclobu-tyl]-6-[(3S)-3-methylmorpholin-4-yl]pyrimidin-2-yl]phenyl]-3-(1H-imidazol-2-ylmethyl)urea]
8 | 5.67 | C[C@H]1COCCN1c1cc(C2(S(=O)(=O)c3ccccc3)CC2)nc(-c2ccc(NC(=S)NCCO)cc2)n1 [Example 37aa, 1-[4-[4-[1-(benzenesulfonyl)cyclopropyl]-6-[(3S)-3-methylmorpholin-4-yl]pyrimidin-2-yl]phenyl]-3-(2-hydroxyethyl)thiourea]
9 | 147 | C[C@H]1COCCN1c1cc(C2(S(=O)(=O)CCCO)CCOCC2)nc(-c2ccc(NC(=O)NC3CCC3)cc2)n1 [Example 36cd, 3-cyclobutyl-1-[4-[4-[4-(3-hydroxypropylsulfonyl)oxan-4-yl]-6-[(3S)-3-methylmorpholin-4-yl]pyrimidin-2-yl]phenyl]urea]
10 | 9.05 | Cc1csc(S(=O)(=O)C2(c3cc(N4CCOC[C@@H]4C)nc(-c4ccc(NC(=O)NC5CC5)cc4)n3)CCCC2)n1 [Example 36dk, 3-cyclopropyl-1-[4-[4-[(3S)-3-methylmorpholin-4-yl]-6-[1-[(4-methyl-1,3-thiazol-2-yl)sulfonyl)cyclopentyl]pyrimidin-2-yl]phenyl]urea]
11 | 1.93 | C[C@H]1COCCN1c1cc(C2(S(=O)(=O)c3ccccc3)CC2)nc(-c2ccc(NC(=O)NCCC#N)cc2)n1 [Example 36bm, 1-[4-[4-[1-(benzenesulfonyl)cyclopropyl]-6-[(3S)-3-methylmorpholin-4-yl]pyrimidin-2-yl]phenyl]-3-(2-cyanoethyl)urea]
12 | 1.18 | CNC(=O)Nc1ccc(-c2nc(N3CCOC[C@@H]3C)cc(C3(S(=O)(=O)c4ccccc4)CCC3)n2)cc1 [Example 36bu, 1-[4-[4-[1-(benzenesulfonyl)cyclobutyl]-6-[(3S)-3-methylmorpholin-4-yl]pyrimidin-2-yl]phenyl]-3-methylurea]
